Results: patent US9315475B2 (MERCK SHARP & DOHME CORP., priority 2011, dated 2016)

Columns and labels:
HIV = conditions: HIV-infected patients, in combination with nucleoside reverse transcriptase inhibitors; cited from earlier work
wildtype HIV-1 protease = molecular target: T1, wildtype HIV-1 protease (Human immunodeficiency virus type 1 group M subtype B, UniProt P04585); assay: Assay for inhibition of microbial expressed HIV protease (Pepcleav); assay type: biochemical; conditions: wild type HIV-1 protease expressed in E. coli, peptide substrate, pH 5.5; mean of at least two independent experiments; read-out: Pepcleav
T1 construct: the wildtype HIV-1 protease (which was expressed in Escherichia coli); made in house; host or cells: Escherichia coli
Procedure, shortened: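 Cleavage of 400 μM peptide substrate Val-Ser-Gln-Asn-(βnaphthyl)Ala-Pro-Ile-Val by 20 pM wild-type enzyme (E. coli-expressed) ran 1 h at 30 °C after 30 min inhibitor preincubation, pH 5.5 acetate buffer. Inhibition derived from product peak area by C18 LC with multiple-reaction-monitoring MS after formic acid quench.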

HIV-1 (H9IIIB strain) = assay: Antiviral acute infection assay in cell culture (Spread); assay type: cell-based; conditions: Human immunodeficiency virus 1, T-lymphoid, HIV-1 H9IIIB infection of MT-4 human T-lymphoid cells in 10% FBS; mean of at least two independent experiments
Excerpt: Antiviral Assays in Cell Culture (“Spread”)
Acute Infection Assay (“Spread”) data were generated using HIV-1 (H9IIIB strain) infection of MT-4 human T-lymphoid cells in 10% FBS, and according to the methods disclosed by J. P. Vacca et al, “L-735,524: An orally bioavailable human immunodeficiency virus type 1 protease inhibitor,” Proc. Natl. Acad. Sci. USA, Vol. 91, pp. 4096-4100 (April 1994).

| Compound | effect on HIV viral loads and CD4 cell counts (HIV) | IC50 (wildtype HIV-1 protease) [nM] | EC50 (HIV-1 (H9IIIB strain)) [nM] |
| --- | --- | --- | --- |
| CC(C)(C)NC(=O)[C@@H]1CN(Cc2cccnc2)CCN1C[C@@H](O)C[C@@H](Cc1ccccc1)C(=O)N[C@H]1c2ccccc2C[C@H]1O [Indinavir, indinavir] | highly effective in reducing HIV viral loads and increasing CD4 cell counts |  |  |
| N[C@H](C(=O)Nc1cccc(F)c1OC[C@@H]1CN[C@H](COC(=O)NCC(F)(F)F)CO1)C(c1ccc(F)cc1)c1ccc(F)cc1 [Example 82, ((3S,6S)-6-((2-((S)-2-amino-3,3-bis(4-fluorophenyl)propanamido)-6-fluorophenoxy)methyl)morpholin-3-yl)methyl (2,2,2-trifluoroethyl)carbamate] |  | 11 | 40 |
| N[C@H](C(=O)Nc1cccc(F)c1CC[C@@H]1CN[C@H](COC(=O)NCC(F)(F)F)CO1)[C@H](c1ccccc1)c1ccc(F)c(F)c1 [Example 269, (βR)-β-(3,4-difluorophenyl)-N-(3-fluoro-2-{2-[(2R,5S)-5-({[(2,2,2-trifluoroethyl)carbamoyl]oxy}methyl)morpholin-2-yl]ethyl}phenyl)-L-phenylalaninamide] |  | 2.7 | 25 |
| COC(=O)N[C@H](C(=O)Nc1cccc(F)c1CC[C@@H]1CN[C@H](COC(=O)NCC(F)(F)F)CO1)[C@H](c1ccccc1)c1ccc(OC)cc1 [Example 296, (βR)-N-(3-fluoro-2-{2-[(2R,5S)-5-({[(2,2,2-trifluoroethyl)carbamoyl]oxy}methyl)morpholin-2-yl]ethyl}phenyl)-Nα-(methoxy-carbonyl)-O-methyl-β-phenyl-L-tyrosinamide] |  | 23 | 120 |
| COc1ccc([C@H](c2ccc(F)cc2)[C@H](N)C(=O)Nc2cncc(F)c2CC[C@@H]2CN[C@H](COC(=O)NCC(F)(F)F)CO2)cc1 [Example 250, (βR)-β-(4-fluorophenyl)-N-(5-fluoro-4-{2-[(2R,5S)-5-({[(2,2,2-trifluoroethyl)carbamoyl]oxy}methyl)morpholin-2-yl]ethyl}pyridin-3-yl)-O-methyl-L-tyrosinamide] |  | 8.3 | 63 |
| CC1(CNC(=O)OC[C@@H]2CO[C@H](CCc3c(F)cncc3NC(=O)CC(c3ccc(F)cc3)c3ccc(F)cc3)CN2)CCCO1 (stereo partly drawn) [Example 166, {(3S,6R)-6-[2-(3-{[3,3-bis(4-fluoro-phenyl)propanoyl]amino}-5-fluoropyridin-4-yl)ethyl]morpholin-3-yl]methyl [(2-methyltetrahydrofuran-2-yl)methyl]carbamate] |  | 14 | 37 |
